This assay deals with ROCK2 (Homo sapiens (Human), UniProt O75116). Put plainly: ROCK assay (Caliper LABCHIP peptide phosphorylation, 5 μM ATP). It counts as biochemical. The protocol: The effectiveness of compounds of the present invention as ROCK inhibitors can be determined in a 30 μL assay containing 20 mM HEPES, pH 7.5, 20 mM MgCl2, 0.015% Brij-35, 4 mM DTT, 5 μM ATP and 1.5 μM peptide substrate (FITC-AHA-AKRRRLSSLRA-OH) (SEQ ID No. 1). Compounds were dissolved in DMSO so that the final concentration of DMSO was <2%, and the reaction was initiated with Rho kinase variants. After incubation, the reaction was terminated by the addition of EDTA and the phosphorylated and non-phosphorylated peptides separated using a LABCHIP® 3000 Reader (Caliper Life Sciences). […] Compounds were tested in dose-response format, and the inhibition of kinase activity was calculated at each concentration of compound. The inhibition data were fit using a curve-fitting program to determine the IC50; i.e., the concentration of compound required to inhibit 50% of kinase activity. Representative Examples were tested in the ROCK assay described above and found having ROCK inhibitory activity. A range of ROCK inhibitory activity (IC50 values) of ≤50 μM (50000 nM) was observed. Table A below lists the ROCK IC50 values measured for the following examples.
ROCK2, sequence (O75116 whole entry, species assumed): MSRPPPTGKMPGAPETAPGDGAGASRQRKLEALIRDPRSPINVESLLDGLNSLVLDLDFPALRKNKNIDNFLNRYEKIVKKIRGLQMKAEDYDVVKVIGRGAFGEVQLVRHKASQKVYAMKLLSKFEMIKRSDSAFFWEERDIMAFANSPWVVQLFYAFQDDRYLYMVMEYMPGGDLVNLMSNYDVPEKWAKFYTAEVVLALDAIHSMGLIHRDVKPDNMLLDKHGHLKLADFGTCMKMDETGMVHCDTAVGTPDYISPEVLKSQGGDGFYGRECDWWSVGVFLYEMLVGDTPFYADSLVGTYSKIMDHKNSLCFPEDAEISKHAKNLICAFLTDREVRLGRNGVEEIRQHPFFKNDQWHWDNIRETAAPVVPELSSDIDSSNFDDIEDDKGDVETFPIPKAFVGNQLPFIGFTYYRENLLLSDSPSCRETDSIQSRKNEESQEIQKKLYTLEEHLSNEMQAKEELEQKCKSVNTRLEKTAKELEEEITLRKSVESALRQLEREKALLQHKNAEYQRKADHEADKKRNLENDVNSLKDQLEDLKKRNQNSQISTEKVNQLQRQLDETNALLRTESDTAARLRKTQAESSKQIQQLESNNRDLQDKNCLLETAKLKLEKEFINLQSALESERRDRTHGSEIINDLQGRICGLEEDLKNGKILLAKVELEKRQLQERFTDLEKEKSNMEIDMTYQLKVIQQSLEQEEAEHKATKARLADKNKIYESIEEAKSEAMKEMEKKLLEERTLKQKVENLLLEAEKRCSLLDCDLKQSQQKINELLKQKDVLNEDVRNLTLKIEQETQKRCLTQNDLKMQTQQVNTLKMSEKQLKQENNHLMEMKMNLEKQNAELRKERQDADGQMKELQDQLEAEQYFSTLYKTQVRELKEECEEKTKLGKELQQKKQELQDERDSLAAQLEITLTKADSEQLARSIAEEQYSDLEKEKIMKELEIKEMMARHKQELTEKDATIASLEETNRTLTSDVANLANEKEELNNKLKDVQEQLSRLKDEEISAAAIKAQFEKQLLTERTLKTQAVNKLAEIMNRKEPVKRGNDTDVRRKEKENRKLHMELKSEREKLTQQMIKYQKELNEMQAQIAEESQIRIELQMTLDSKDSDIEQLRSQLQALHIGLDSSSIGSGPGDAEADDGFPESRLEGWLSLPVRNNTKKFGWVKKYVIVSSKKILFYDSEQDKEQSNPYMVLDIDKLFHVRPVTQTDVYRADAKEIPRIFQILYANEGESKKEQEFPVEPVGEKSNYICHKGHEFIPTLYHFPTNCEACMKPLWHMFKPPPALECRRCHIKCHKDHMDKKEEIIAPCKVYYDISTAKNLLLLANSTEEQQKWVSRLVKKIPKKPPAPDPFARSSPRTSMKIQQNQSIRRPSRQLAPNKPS

Broadly, the IC50 is the concentration needed to halve the response being measured. A low value points to greater potency.

On to `[H][C@]1(Oc2ncccc2C(N)=O)C[C@@]2(C[C@H](Nc3nccc(N4CC[C@H](F)C4)n3)C2)C1` (stereo partly drawn) [Example 42, 2-(((2S,4r,6S)-6-((4-((S)-3-fluoro-pyrrolidin-1-yl)pyrimidin-2-yl)amino)spiro [3.3]heptan-2-yl)oxy) nicotinamide], for which the half-maximal inhibitory concentration (IC50) turned out to be 2.03 µM.

Compound `[H][C@]1(Oc2ncccc2C(N)=O)C[C@]2(C[C@@H](Nc3ccnc(N4CCC(F)(F)C4)n3)C2)C1` (stereo partly drawn) [Example 62, 2-(((2S,4s,6S)-6-((2-(3,3-difluoro-pyrrolidin-1-yl)pyrimidin-4-yl)amino)spiro[3.3]heptan-2-yl)oxy) nicotinamide] registered a 50% inhibitory concentration (IC50) of 0.398 µM.

As to `[H][C@]1(Oc2ncccc2C(N)=O)C[C@]2(C[C@@H](Nc3nccc(-c4cccc(C#N)c4)n3)C2)C1` (stereo partly drawn) [Example 52, 2-(((2S,4s,6S)-6-((4-(3-cyanophenyl)pyrimidin-2-yl)amino)spiro[3.3]heptan-2-yl)oxy) nicotinamide], half-maximal inhibition (IC50) required 0.087 µM. This IC50 is about 4.6-fold lower than that of the compound before.

For `NC(=O)c1cccnc1O[C@H]1C[C@@]2(C[C@H](Nc3nnc(-c4ccc(F)c(F)c4F)o3)C2)C1` (stereo partly drawn) [Example 19, 2-(((2S,4s,6S)-6-((5-(2,3,4-trifluorophenyl)-1,3,4-oxadiazol-2-yl)amino)spiro[3.3]heptan-2-yl)oxy)nicotinamide], the IC50 was found to be 0.287 µM.

As to `[H][C@]1(Oc2ncccc2C(N)=O)C[C@]2(C[C@@H](Nc3ccnc(N4CCC(C(F)(F)F)CC4)n3)C2)C1` (stereo partly drawn) [Example 65, 2-(((2S,4s,6S)-6-((2-(4-(trifluoro-methyl)piperidin-1-yl)pyrimidin-4-yl)amino)spiro[3.3]heptan-2-yl)oxy) nicotinamide], inhibition was half-maximal at 0.964 µM (IC50). This IC50 lies about 3.4-fold higher than the previous one.

`NC(=O)c1cccnc1O[C@H]1CC2(C[C@H](Nc3nc4cc(F)c(Br)cc4s3)C2)C1` (stereo partly drawn) [Example 1, 2-(((2S,4s,6S)-6-((6-bromo-5-fluorobenzo[d]thiazol-2-yl)amino)spiro[3.3]heptan-2-yl)oxy)nicotinamide]: the IC50 came out at 0.547 µM.

`NC(=O)c1cccnc1O[C@H]1C[C@@]2(C[C@H](Nc3ncnc4ccc(F)cc34)C2)C1` (stereo partly drawn) [Example 26, 2-(((2S,4s,6S)-6-((6-fluoro-quinazolin-4-yl)amino)spiro[3.3]heptan-2-yl)oxy) nicotinamide] had an IC50 of 0.128 µM. Compared with the last compound, the IC50 is about 4.3-fold lower.

In the case of `[H][C@]1(Oc2ncccc2C(N)=O)C[C@]2(C[C@@H](Nc3nccc(-c4cnn(C)c4)n3)C2)C1` (stereo partly drawn) [Example 54, 2-(((2S,4s,6S)-6-((4-(1-methyl-1H-pyrazol-4-yl)pyrimidin-2-yl)amino)spiro[3.3]heptan-2-yl)oxy) nicotinamide], the IC50 turned out to be 0.874 µM.

Regarding `COc1ccc2c(N[C@H]3C[C@]4(C3)C[C@H](Oc3ncccc3C(N)=O)C4)nccc2c1` (stereo partly drawn) [Example 33, 2-(((2S,4s,6S)-6-((6-methoxy-isoquinolin-1-yl)amino)spiro [3.3]heptan-2-yl)oxy) nicotinamide], the IC50 turned out to be 0.017 µM. Against the preceding compound, the IC50 is about 51-fold lower.

In turn, `[H][C@]1(Oc2ncccc2C(N)=O)C[C@]2(C[C@@H](Nc3nccc(-c4ccc(F)cc4)n3)C2)C1` (stereo partly drawn) [Example 47, 2-(((2S,4s,6S)-6-((4-(4-fluorophenyl)pyrimidin-2-yl)amino)spiro[3.3]heptan-2-yl)oxy) nicotinamide] gave a 50% inhibitory concentration (IC50) of 0.211 µM. Compared with the last compound, the IC50 is about 12-fold higher.

In the case of `NC(=O)c1cccnc1O[C@H]1C[C@@]2(C[C@H](Nc3nc(-c4ccccc4)cs3)C2)C1` (stereo partly drawn) [Example 13, 2-(((2S,4s,6S)-6-((4-phenylthiazol-2-yl)amino)spiro[3.3]heptan-2-yl)oxy)nicotinamide], the IC50 came out at 0.096 µM.

`[H][C@]1(Oc2ncccc2C(N)=O)C[C@]2(C[C@@H](Nc3ccnc(N4CCCC(F)C4)n3)C2)C1` (stereo partly drawn) [Example 64, 2-(((2S,4s,6S)-6-((2-(3-fluoro-piperidin-1-yl)pyrimidin-4-yl)amino)spiro [3.3]heptan-2-yl)oxy) nicotinamide] gave an IC50 of 0.89 µM.

The compound `[H][C@]1(Oc2ncccc2C(N)=O)C[C@]2(C[C@@H](Nc3ccnc(N4CCC(F)CC4)n3)C2)C1` (stereo partly drawn) [Example 63, 2-(((2S,4s,6S)-6-((2-(4-fluoro-piperidin-1-yl)pyrimidin-4-yl)amino)spiro [3.3]heptan-2-yl)oxy) nicotinamide] yielded an IC50 of 0.733 µM.

In the case of “2-(((2S,4r,6S)- 6-((2- ((S)-3- fluoro- pyrrolidin- 1- yl) pyrimidin-4- yl)amino) spiro[3.3] heptan-2- yl)oxy) nicotinamide [Example 69]”, half-maximal inhibition (IC50) was put at 1.56 µM.

For `NC(=O)c1cccnc1O[C@H]1C[C@@]2(C[C@H](Nc3nnc(-c4ccc(F)cc4F)o3)C2)C1` (stereo partly drawn) [Example 20, 2-(((2S,4s,6S)-6-((5-(2,4-difluorophenyl)-1,3,4-oxadiazol-2-yl)amino)spiro[3.3]heptan-2-yl)oxy)nicotinamide], the IC50 is 0.537 µM.

For `NC(=O)c1cccnc1O[C@H]1C[C@@]2(C[C@H](Nc3ncc4cc(F)ccc4n3)C2)C1` (stereo partly drawn) [Example 29, 2-(((2S,4s,6S)-6-((6-fluoro-quinazolin-2-yl)amino)spiro [3.3]heptan-2-yl)oxy) nicotinamide], the IC50 is 0.141 µM.

For `[H][C@]1(Oc2ncccc2C(N)=O)C[C@]2(C[C@@H](Nc3nccc(-c4ccc(C(=O)N(C)C)cc4)n3)C2)C1` (stereo partly drawn) [Example 50, 2-(((2S,4s,6S)-6-((4-(4-(dimethyl-carbamoyl)phenyl)pyrimidin-2-yl)amino)spiro[3.3]heptan-2-yl)oxy) nicotinamide], the IC50 was 1.1 µM.

Consider `[H][C@]1(Oc2ncccc2C(N)=O)C[C@]2(C[C@@H](Nc3nccc(-c4cccnc4)n3)C2)C1` (stereo partly drawn) [Example 51, 2-(((2S,4s,6S)-6-((4-(pyridin-3-yl)pyrimidin-2-yl)amino)spiro[3.3]heptan-2-yl)oxy) nicotinamide], for which the 50% inhibitory concentration (IC50) was 0.414 µM.

In turn, `Cc1ccc2c(N[C@H]3C[C@]4(C3)C[C@H](Oc3ncccc3C(N)=O)C4)nccc2c1` (stereo partly drawn) [Example 31, 2-(((2S,4s, 6S)-6-((6-methyl-isoquinolin-1-yl)amino)spiro [3.3]heptan-2-yl)oxy) nicotinamide] returned an IC50 of 0.047 µM.

On to `COc1ccc2c(N[C@H]3C[C@]4(C3)C[C@H](Oc3ncccc3C(N)=O)C4)nc(OC)cc2c1` (stereo partly drawn) [Example 32], for which it took 0.068 µM to reach half-maximal inhibition (IC50).

For the compound `NC(=O)c1cccnc1O[C@H]1C[C@@]2(C[C@H](Nc3nnc(-c4ccc(OC(F)(F)F)cc4)o3)C2)C1` (stereo partly drawn) [Example 16, 2-(((2S,4s,6S)-6-((5-(4-(trifluoromethoxy)phenyl)-1,3,4-oxadiazol-2-yl)amino)spiro[3.3]heptan-2-yl)oxy)nicotinamide], the IC50 stood at 0.096 µM.

Consider `[H][C@]1(Oc2ncccc2C(N)=O)C[C@]2(C[C@@H](Nc3nccc(N4CC(F)(F)C4)n3)C2)C1` (stereo partly drawn) [Example 39, 2-(((2S,4s,6S)-6-((4-(3,3-difluoro-azetidin-1-yl)pyrimidin-2-yl)amino)spiro[3.3]heptan-2-yl)oxy) nicotinamide], for which the IC50 is 0.983 µM.

Regarding `NC(=O)c1cccnc1O[C@H]1C[C@@]2(C[C@H](Nc3ncnc4cc(Cl)ccc34)C2)C1` (stereo partly drawn) [Example 24, 2-(((2S,4s,6S)-6-((7-chloro-quinazolin-4-yl)amino)spiro[3.3]heptan-2-yl)oxy) nicotinamide], the IC50 stood at 0.103 µM.

In turn, `NC(=O)c1cccnc1O[C@H]1C[C@@]2(C[C@H](Nc3nc(-c4ccc(F)cc4)cs3)C2)C1` (stereo partly drawn) [Example 12, 2-(((2S,4s,6S)-6-((4-(4-fluorophenyl)thiazol-2-yl)amino)spiro [3.3]heptan-2-yl)oxy)nicotinamide] yielded a concentration for half-maximal inhibition (IC50) of 0.846 µM.

The values are drawn from patent publication US11299488B2, “Five membered-aminoheterocycle and 5,6-or 6,6-membered bicyclic aminoheterocyclic inhibitors of rock for the treatment of heart failure” (BRISTOL-MYERS SQUIBB COMPANY, priority 2017, dated 2022).
